Laboratory results published in US6878690B2, “Compounds and methods” (PharmAxis Pty Ltd., priority 2000, dated 2005).
Where “and” joins values, the source holds several entries; their conditions need not be identical. Identical values can stand only once.

Experiments:
[1] = system: lymphocyte migration into the spleen; experiment: Inhibition of lymphocyte migration into lymphoid tissue (spleen); format: in vivo, Balb/C mice; conditions: intravenous dose of 5 mg of test compound together with labelled lymphocytes; spleens removed 1.5 hours after injection
Excerpt: In the present example, spleens from specific pathogen free 6-8 week old female Balb/C mice [19-21 g] were used to prepare a single cell suspension in the usual manner in mixed lymphocyte culture medium (DMEM plus glucose, folic acid, L-asparagine, sodium bicarbonate, L-glutamine, sodium pyruvate, HEPES, 2-mercaptoethanol, penicillin, streptomycin, neomycin, and 2% fetal calf serum) by pushing through a stainless steel screen. Following cell collection the red blood cells were lysed in the usual manner by treating with a solution of ammonium chloride, EDTA and sodium hydrogen carbonate (pH 7.3) and the preparation strained (Falcon 2350 cell strainer). All cell preparative steps were performed on ice.
In order to deplete the preparation of B lymphocytes, the cells were suspended in purified rat anti-mouse CD45/B220 antibody (RA3-6B2 clone; PharMingen, USA) at a concentration of 4×10^7 cells per ml and incubated on ice for 20 minutes. An equal volume of mixed lymphocyte culture medium (as above) was then added and the cells centrifuged (200× g) and resuspended at a concentration of 1×10^7 cells per ml in BioMag goat ant-rat IgG (H&L) linked to magnetic beads (Bio Mag; Perseptive Diagnostics, Polysciences Inc, USA). Following a 20 minute incubation on ice, with agitation every 5 minutes, the goat anti-rat IgG/antibody complex was removed using magnetic separation (Dynal MPC-6, Dynal, USA). The magnetic separation procedure was repeated 4 times giving a cell population containing approximately 80-90% T lymphocytes (determined by FACS analysis).
The cells were then washed in Hanks media, resuspended in 5 ml of Hanks, and radio-labelled for 30 minutes at 37° C. with sodium chromate solution (^51Cr, 34 MBq/ml, Amersham, UK). The labelled cells were washed in PBS centrifuged (200×g) and a portion were resuspended at a concentration of 3×10^7 cells/ml in either PBS (negative control), or PBS containing the test compound (25 mg/ml), and stored on ice. Balb/C mice in the negative control and treatment groups received a volume of 0.2 ml of the labelled cell preparation by a lateral tail vein injection. Negative control mice received 0.2 ml of PBS together with 6×10^6 51chromium-labelled lymphocytes, and mice from the treated groups received an intravenous dose of 5 mg of the test compound together with 6 million ^51chromium-labelled lymphocytes. […]
Spleens from the recipient mice were removed 1.5 hours after injection and the cell-associated radioactivity (CPM) determined using a gamma counter (Packard Auto-Gamma 5650. IL, USA). Results (inhibition of lymphocyte migration into the spleen) were expressed as a percentage reduction in the CPM of the spleens from treated animals compared with negative controls.

[2] = system: DTH response to 2,4-dinitrofluorobenzene (DNFB); experiment: Delayed-type hypersensitivity (DTH) response to DNFB, ear swelling; format: in vivo, Balb/C mice
Excerpt: In the present Example, a murine model of Type IV hypersensitivity or delayed-type hypersensitivity (DTH) response to cutaneous contact with the chemical hapten 2,4-dinitrofluorobenzene (DNFB) (Aldrich Chemical Company Inc, USA) was used as a model to measure the anti-inflammatory effects of compounds of the present invention. Specific pathogen-free 8-12 week old female Balb/C mice, weighing 19-21 g, were sensitised in a similar manner to that described by Klimuk et al., (Klimuk et al., 1999) by applying a solution of DNFB (0.5% in acetone:olive oil (4:1, v/v); 30 microliters,) onto a 2 cm^2 shaved area of the abdomen. After 7 days, the animals were anesthetised with diethyl ether and 8 microliters of DNFB (0.35% in acetone:olive oil (4:1, v/v) was applied to the dorsal and ventral surfaces of the right pinna. Prior to regaining consciousness, the mice were implanted intraperitoneally with Alzet 2001 mini-osmotic pumps (Alza Corp., Palo Alto Calif., USA) containing phosphoric acid mono-[6-(3-hexyloxy-propyl)-3,4,5-trihydroxy-tetrahydro-pyran-2-ylmethyl] ester, sodium salt in normal saline. The dose delivered was 50 mg/kg/day. Control animals for this group received saline delivered in identical mini-osmotic pumps. A second experimental group of mice received phosphoric acid mono-[3-(3,4,5-trihydroxy-6-phosphonooxymethyl-tetrahydro-pyran-2-yl)-propyl] ester disodium salt via one-week delivery Alzet 2001 mini-osmotic pumps implanted intraperitoneally. This compound was delivered at a dose of 40 mg/kg/day. Control animals for this group received saline delivered in identical mini-osmotic pumps. In a third experiment a separate group of mice received (3,4,5-trihydroxy-6-phosphonooxymethyl-tetrahydro-pyran-2-yl)-acetic acid disodium salt via one-week delivery Alzet 2001 mini-osmotic pumps that were placed intraperitoneally. This compound was delivered at 45 mg/kg/day. The control group for this experiment received identical mini-osmotic pumps containing normal saline. In a fourth experiment a group of mice received 3-phenyl-2-[2-(3,4,5-trihydroxy-6-phosphonooxymethyl-tetrahydro-pyran-2-yl)-acetylamino]-propionic acid monosodium salt via one-week delivery Alzet 2001 mini-osmotic pumps that were placed subcutaneously. This compound was delivered at 62 mg/kg/day. The control group for this experiment received identical mini-osmotic pumps containing normal saline. In a fifth experiment a group of mice received hexanoic acid 3-(3,4,5-trihydroxy-6-phosphonooxymethyl-tetrahydro-pyran-2-yl)-propyl ester sodium salt via one-week delivery Alzet 2001 mini-osmotic pumps that were placed subcutaneously. This compound was delivered at 40 mg/kg/day. The control group for this experiment received identical mini-osmotic pumps containing normal saline.
Twenty-four hours after challenge the mice were lightly anesthetised with diethyl ether and the thickness of the left and right pinnae measured (in millimeters) using a dial gauge micrometer (Interapid, Switzerland). Care was taken to measure only the outer two thirds of the ear. The increase in ear thickness initiated by the DTH response was determined by subtracting the measurement of the left ear (untreated) from the right ear (challenged).
In Table 4, values in the columns labeled Left and Right are measurements of ear thickness in millimeters of the control and challenged ears respectively.

[3] = system: T lymphocyte migration into the right ear; experiment: Inhibition of in vivo migration of T lymphocytes into extra lymphatic tissues (picryl chloride treated ear); parameters: species or system Balb/C mice; conditions: 5 mg per mouse, IV, 9 to 10 hours after cell transfer
Excerpt: T lymphocytes are known to migrate from the blood stream into tissues, including tissues that contain an antigen to which they can respond. An in vivo example of T lymphocyte migration involves the intravenous injection of radioisotopically- or fluorescently-labelled antigen-specific T cells into a mammal that has the antigen present in one or more of its tissues. An assessment of the degree to which the injected T cells have accumulated in the antigen-containing tissue can be made either by measuring the amount of radioactivity present in the tissue or analysing the tissue histologically to determine the number of infiltrated fluorescently labelled cells. […] For example, in the case of a CNS antigen the cells will localise in the brain and spinal cord and the number of labelled cells that have accumulated there can then be determined. […] Within a short time of cell transfer sensitised T cells begin to accumulate in the haptenised tissue and eight to twenty-four hours later the tissue can be removed and the cell accumulation assessed. In the case of fluorescently-labelled cells their accumulation is assessed histologically and in the case of the radio-labelled cells accumulation is assessed by counting radio active decay in a suitable device. […]

Row | Compound | Percent Inhibition (relative to negative controls) of lymphocyte migration into spleens [1] [%] | Mean percentage decrease in ear swelling in treated animals ([2]; 45 mg/kg/day intraperitoneally, versus saline controls) | Mean Difference, Treated ([2]; group mean, 45 mg/kg/day intraperitoneally, saline control mean 0.068) [millimeters] | Difference (right minus left ear), Treated ([2]; individual mice, 45 mg/kg/day, mini-osmotic pump intraperitoneally, 24 hours after challenge, disodium salt) | Right ear thickness, Treated ([2]; individual mice, challenged ear, 45 mg/kg/day, mini-osmotic pump intraperitoneally, 24 hours after challenge, disodium salt) | Left ear thickness, Treated ([2]; individual mice, control (unchallenged) ear, 45 mg/kg/day, mini-osmotic pump intraperitoneally, 24 hours after challenge, disodium salt) | Percent inhibition of T cell migration [3] [%]
1 | O=C([O-])CC1OC(COP(=O)(O)O)C(O)C(O)C1O.O=C([O-])CC1OC(COP(=O)(O)O)C(O)C(O)C1O.[Na+].[Na+] (stereo not shown) [(3,4,5-trihydroxy-6-phosphonooxymethyl-tetrahydro-pyran-2-yl)-acetic acid disodium salt] | 85.5 | Mean percentage decrease in ear swelling intreated animals: 29.4% | 0.048 | 0.06 millimeters (2×) and 0.05 millimeters (3×) and 0.03 millimeters (3×) and 0.07 millimeters | 0.27 millimeters (3×) and 0.24 millimeters (2×) and 0.29 millimeters and 0.26 millimeters (3×) | 0.21 millimeters (6×) and 0.22 millimeters (2×) and 0.23 millimeters | 
2 | Phenylethyl (3,4,5-trihydroxy-6-phosphonooxymethyl-tetrahydro-pyran-2-yl)-acetic acid ester |  |  |  |  |  |  | 26.1
